Data: patent US20010007657A1, “Compositions and methods for manipulating glial progenitor cells and treating neurological deficits” (priority 1997, published 2001)
Entries after “also recorded” stand apart in the source; their conditions may differ.

Experiments:
[1] = test system: EGF receptor mRNA; experiment: In situ hybridization of EGF receptor mRNA after nigral 6-OHDA lesion and/or striatal TGFα infusion; assay type: in vivo, rat
Description: (§1) Adult male Sprague-Dawley rats weighing 250-300 grams were obtained from Simonsen (Gilroy, Calif.) and assigned to one of five treatment groups: (1) striatal TGFα infusion, nigral 6-OHDA lesion (hereafter, “lesion”); (2) TGFα infusion, no lesion; (3) artificial cerebrospinal (aCSF) infusion, lesion; (4) aCSF infusion, no lesion; (5) no infusion, no lesion. Four to eight animals were used per experimental group. The animals were monitored after each surgical procedure until fully recovered and maintained at all other times in a temperature and humidity controlled vivarium.
(§2) Rats were anesthetized with 8 mg xylazine and 100 mg ketamine per kilogram body weight. […] The success and extent of 6-OHDA lesions were monitored by tyrosine hydroxylase (TH) mRNA in situ hybridization in the midbrain. TH is the rate-limiting enzyme in the dopamine synthetic pathway and is a common marker for dopamine-producing neurons. One animal with an incomplete lesion (retaining significant numbers of nigral TH-IR cells) was excluded from the study and is not included in the total number of animals.
(§3) Osmotic minipumps (model 2002, Alzet, Inc.) were implanted four to five weeks post-lesion. […] The minipump itself was placed subcutaneously in the interscapular region.
(§4) At the end of the infusion period, animals were sacrificed by decapitation. Their brains were quickly removed, frozen in isopentane at −20° C., and stored at −70° C. Coronal cryostat sections were cut at 20 μm and thaw-adhered to Vectabond™ (Vector Labs, Inc.) coated slides in ordered anterior-to-posterior rows. The sections were postfixed with 4% paraformaldehyde in 0.1 M phosphate buffer (pH 7.4) for one hour, rinsed in phosphate buffer and air dried. Sections were stored with desiccant at −20° C. until processed.
TGFα mRNA probes were generated from a 550 nucleotide XbaI/BamHI cDNA fragment from the 5′ end of rat TGFα subcloned into pGEM 7Zf (Promega, Inc.). Antisense and sense probes were transcribed with SP6 and T7 polymerases, respectively. Rat EGF receptor mRNA probes were produced from a 718 base pair BamHI/SphI insert from the 5′ end of the gene in pGEM 7Zf. Probes for rat TH were created using the 1.2 kb BamHI/EcoRI fragment subcloned into pGEM 7Zf. Antisense subclones for EGF receptor and TH were transcribed with T7 polymerase. Sense subclones for EGF receptor and TH were transcribed with SP6 polymerase. All probes were radiolabeled by transcription in the presence of [^35S]UTP (NEN Research Products, Inc.).
In situ nucleic acid hybridization was performed according to the method described by Simmons et al. 1989, supra). Parallel sections from experimental and control animals were hybridized overnight at 65° C. with sense or antisense probes at a concentration of 10^7 cpm/ml.

[2] = test system: 6OHDA lesioned animals
[3] = test system: TGFα mRNA; experiment: In situ hybridization of TGFα mRNA after nigral 6-OHDA lesion and/or striatal TGFα infusion; assay type: in vivo, rat; details: unlesioned animals, striatal TGFα infusion two weeks, vs contralateral or normal striata
Description: as §1, §2, §3, §4
TGFα mRNA probes were generated from a 550 nucleotide XbaI/BamHI cDNA fragment from the 5′ end of rat TGFα subcloned into pGEM 7Zf (Promega, Inc.). Antisense and sense probes were transcribed with SP6 and T7 polymerases, respectively. […]

[4] = test system: stem and neuroprogenitor cells in the SVZ; experiment: Morphological studies of proliferation, directed migration and differentiation induction (Example 3); assay type: in vivo, rat
[5] = infusion into the lateral ventricle, 6-OHDA-lesioned

## TGFα: transforming growth factor alpha polypeptide, EGF-family growth factor that binds the EGF receptor; infused into rat brain
[1]; TGFα infusion/nonlesion group
  rats with ridge of dense EGF receptor mRNA hybridization in ipsilateral striatum: one of six
[1]; combined TGFα infusion/6-OHDA lesion group
  rats with ridge of dense EGF receptor mRNA hybridization in ipsilateral striatum: five of the six
[1]; striatal TGFα infusion two weeks, lesioned and unlesioned
  EGF receptor mRNA hybridization in the ipsilateral subependymal region: dramatically increased; also recorded: approximately doubled
[2]; animals receiving the TGFα infusions
  apomorphine-induced rotations: significant reduction
[2]; infusion 14 days after 6-OHDA lesion, 14-day striatal infusion, p<0.05
  improvement in rotational behavior, TGFα versus aCSF-treated control animals: 38%
[2]; infusion contemporaneous with 6-OHDA lesion, entire four-week period
  animals not exhibiting rotational behavioral asymmetry following apomorphine: 10 of the 11
[2]; rat, in vivo
  other motor behaviors (exploratory, consummatory behavior): did not appear to be adversely affected
[3]
  TGFα mRNA hybridization in the infused striatum: unchanged
[4]; 10 ug dose
  effectiveness in inducing ridge formation: minimally less effective
[4]; 4 to 6 days of continuous infusion, lesioned animals
  thickening of the SVZ: pronounced thickening of the SVZ
[4]; 50 and 100 ug dose
  effectiveness in inducing ridge formation: equally effective
[4]; first three days of infusion
  5′BrdU incorporation into the SVZ: massively increased incorporation
[4]; from the fourth day of infusion
  nestin staining of SVZ and ridge cells: nestin-positive
[4]; [5]
  SVZ proliferation: temporary proliferation of SVZ cells
  migratory ridge: no migratory ridge
[4]; infusion into the septum
  SVZ proliferation: massive proliferation of the SVZ
[4]; starting at 14 days of infusion
  β-III tubulin (neuronal lineage) staining: β-III tubulin positive cells were seen
[4]; third and fourth week of infusion, 6-OHDA-lesioned
  tyrosine hydroxylase (TH) positive cells in the striatum: increasing numbers of TH positive cells
